Laboratory results from US20100216847A1, “N[…] THE TREATMENT OF PAIN” (UNIVERSITY OF KENTUCKY RESEARCH FOUNDATION, priority 2006, published 2010).

What was measured:
[1] = test system: rodent model of nociceptive pain (tail-flick test); assay: Tail-flick test after intraperitoneal administration; type: in vivo, rat; details: male Sprague-Dawley rats, 5 mg/kg IP single dose, perchlorate salt, vs saline, n=6; preliminary data
Experimental: A study was performed to screen the analgesic activities of S(−) and R(+) enantiomers of nornicotine following administration by intraperitoneal route (IP) in a rodent model of nociceptive pain. The responses to acute thermal stimuli were determined using the tail-flick test [D′Amour F. E., Smith D. L. “A method for determining loss of pain sensation” J Pharmacol Exp Ther (1941), 72:74-79]. Tail-flick latency (TFL) was measured by recording the time from the onset of the heat stimulus to the tail to withdrawal of the tail from the heat source, using a standard tail-flick apparatus (EMDIE, Instrument Co., Roanoke, Va.). The sensitivity of the instrument was adjusted to provide an average baseline 2-3 seconds. Cut-off time of 10 s was used to avoid tail damage.
A single dose [5 mg/kg in perch salt form (perchlorate)] of each nornicotine enantiomer was administered (IP) in 6 male rats [Sprague-Dawley; about 90 days old, 350 g, (Harlan, Indianapolis, Ind.)]. Saline (vehicle, 1 ml/kg) served as control. TFL were determined prior to (twice, 15 min apart) and at 5, 15, 30, 45 and 60 min after i.p. administration. Data were presented as time courses of TFL (normalized for pre-injection baseline, s) [FIG. 1A] and areas under the curves (AUC0-60min) [FIG. 1B].

[2] = test system: rodent model of chronic inflammatory pain (formalin test); assay: Formalin test (intra-plantar formalin) after intraperitoneal administration; type: in vivo, rat; details: male rats, 5 mg/kg IP fumarate salt, 15 min prior to formalin, n=6; for formalin-induced flinching, late (tonic) phase 20-60 min: significantly different from saline P<0.05
Experimental: A study was performed to screen the analgesic activities of S(−) and R(+) enantiomers of nornicotine following administration by intraperitoneal route (IP) in a rodent model of chronic inflammatory pain (formalin test). Intra-plantar injection of formalin produces a biphasic behavioral response consisting of flinching, lifting and licking behaviors in rodents. The first phase (acute, 0-20 min) results from direct stimulation of nociceptors (nociceptive pain) whereas the second phase (tonic, 20-60 min) involves central sensitization (a characteristic of neuropathic pain). Accordingly, the formalin test was used to determine the analgesic effects of S(−)- and R(+)-nornicotine [Wheeler-Aceto H., Covan A. “Standardization of the rat formalin test for the evaluation of analgesics” Psychopharmacology (1991) 104:35-44]. Formalin (50 mcl) was injected subcutaneously (SC) into the dorsal surface of the hind paw. The rat was placed in a Plexiglas cage and the intensity of pain (number of formalin-induced flinches) was rated in 5 min intervals for 60 min.
A single dose [5 mg/kg in salt form (fumarate)] of each nornicotine enantiomer and saline (control) was administered (IP) 15 min prior to formalin (SC) injection in 6 male rats. Data were presented as time courses of formalin-induced flinches (number) for S(−)-nornicotine, R(+)-nornicotine and saline [FIG. 4A] and areas under the curves (AUC) calculated for phase 1 (acute, 0-20 min) [FIG. 4B] and phase 2 (tonic, 20-60 min) [FIG. 4C].

[3] = test system: rodent model of nociceptive pain (tail-flick test); assay: Tail-flick test after intrathecal administration; type: in vivo, rat; details: male rats, 10 mcg IT single dose, perchlorate salt, n=5, P<0.05 post-hoc SNK
Experimental: A study was performed to screen the analgesic activities of S(−) and R(+) enantiomers of nornicotine following administration by intrathecal route (IT) in a rodent model of nociceptive pain (tail-flick test).
In order to inject these drugs via the IT route chronic catheterization of the spinal subarachnoid space was performed in rats [Yaksh T., Rudy T. “Chronic catheterization of the spinal subarachnoid space” Physiol Behav (1976) 17:1031-1036 (with minor modification)]. Briefly, a 21 cm long P-10 polyethylene tubing (volume 10 mcl) which extended 8.5 cm beyond an incision in the atlanto-occipital membrane was secured to the scull with acrylic cement. The catheter rested in the vicinity of T-12 at the rostral face of the lumbar cord enlargement. The studies were initiated 1 week after implantation of the IT catheter.
A single dose [10 mcg in perch salt form (perchlorate)] of each enantiomer was administered (IT) in 5 male rats. Saline (vehicle; 10 mcl) was used as control. The responses to acute thermal stimuli were determined using the tail-flick test (baseline 2-3 seconds, cut-off 10 seconds). TFL were measured prior to (twice, 15 min apart) and at 5, 10, 15, 30, 45 and 60 min after IT administration. Data were presented as time courses of TFL (normalized for pre-injection baseline, s) [FIG. 2A] and areas under the curves (AUC0-60min) [FIG. 2B].

[4] = test system: rodent model of nociceptive pain (paw withdrawal test); assay: Thermal paw withdrawal test after intraperitoneal administration; type: in vivo, rat; details: male rats, 2.5, 5 and 10 mg/kg IP, free base, n=8; P<0.05 1-way ANOVA
Experimental: To further characterize the analgesic properties of S(−)nornicotine, a dose-response relationship was determined. Responsiveness to acute thermal noxious stimuli was assessed by a thermal paw withdrawal test [Hargreaves K. et al., “A new sensitive method for measuring thermal nociception in cutaneous hyperalgesia” Pain (1988) 32:77-88]. This test, which uses a ramp heat stimulus on the plantar surface of the paw, appears to generate more consistent analgesic responses to nicotinic drugs as compared to tail flick test. Plantar Stimulator Analgesia Meter (11TC, Life Science, Woodland Hills, Calif.) was used. Briefly, the rat was placed in a clear plastic chamber and allowed to acclimate for 5 min. After the acclimation period, the radiant heat was positioned under the glass floor directly beneath the plantar hind paw. The heat source activated a timer that was controlled by a photocell. The hind paw withdrawal interrupted the photocell and automatically stopped the timer. Latency to paw withdrawal (PWL) was measured to the nearest 0.1 s. […]
S(−)-Nornicotine was administered in three doses (2.5, 5 and 10 mg/kg in form of free base) via the IP route in 8 male rats. […] Responses (PWL, s) were measured prior to and at 5, 10, 15, 30, and 60 min after IP injection. For each rat and at each time point, response was normalized for baseline measured on the day of experiment. […]

[5] = in vivo; cited from earlier work
[6] = humans; cited from earlier work
[7] = following peripheral administration of nicotine; cited from earlier work
[8] = following repeated nicotine dosing; cited from earlier work

With `c1cncc([C@H]2CCCN2)c1` [R(+)-nornicotine] as the compound, how does the “analgesic effect (tail-flick latency, AUC0-60min)” value [1] read?
Its value is “less pronounced”.

And the “formalin-induced flinching, early (acute) phase 0-20 min” value [2]?
Its value is “Neither enantiomer had significant effect”.

And the “formalin-induced flinching, late (tonic) phase 20-60 min” value [2]?
Its value is “attenuated formalin-induced flinching”.

For `c1cncc([C@@H]2CCCN2)c1` [S(−)-nornicotine], which “analgesic effect (tail-flick latency, AUC0-60min) vs the other enantiomer” value [3] is on record?
Its value is “significantly greater as compared to R(+)-nornicotine”.

And the “analgesic effect (tail-flick latency, AUC0-60min) vs saline” value ([3]; preliminary data)?
The value was “significantly greater as compared to saline”.

And the “potency and toxicity profile compared to R(+)-nornicotine” value (Dose escalation studies)?
Its value is “more favorable potency and toxicity profile”.

What about the “analgesic effect (tail-flick latency, AUC0-60min)” value [1] of the same compound?
The value was “significantly greater as compared to saline”.

What about the “analgesic effect (paw withdrawal latency, AUC0-60min vs log dose)” value [4] of the same compound?
Its value is “significantly related to dose”.

And the “formalin-induced flinching, early (acute) phase 0-20 min” value [2]?
The value was “Neither enantiomer had significant effect”.

What about the “formalin-induced flinching, late (tonic) phase 20-60 min” value [2] of the same compound?
Its value is “attenuated formalin-induced flinching”.

With `CN1CCCC1c1cccnc1` (centres unmarked) [nicotine, reference compound] as the compound, how does the oral bioavailability [5] read?
Its oral bioavailability is 10%.

What about the plasma half-life [6] of the same compound?
Its plasma half-life is 1 h.

And the “residence in the rat's brain” value [7]?
Its value is 52 min.

For Nornicotine, which “accumulation in brain compared to nicotine” value [8] is on record?
The value was “about 4 fold”.

What about the “oral bioavailability (in words)” value [5] of the same compound?
The value was “good oral bioavailability”.

And the plasma half-life [6]?
The plasma half-life was 8 h.

And the “residence in the rat's brain” value [7]?
The value was 166 min.
